{"source": "patent US7482374B2", "about": "“Pyrrolidine-2-ones as Factor Xa inhibitors” (Glaxo Group Limited, priority 2003, dated 2009)", "note": "Where a name gives a salt, the structure may show the parent alone."}
{"molecular_target": "T1, human Factor Xa (Homo sapiens, UniProt P00742)", "T1 construct": "containing human Factor Xa (final conc. Of 0.0003 U·ml−1)", "T1 sequence (P00742 235-488 limits assumed)": "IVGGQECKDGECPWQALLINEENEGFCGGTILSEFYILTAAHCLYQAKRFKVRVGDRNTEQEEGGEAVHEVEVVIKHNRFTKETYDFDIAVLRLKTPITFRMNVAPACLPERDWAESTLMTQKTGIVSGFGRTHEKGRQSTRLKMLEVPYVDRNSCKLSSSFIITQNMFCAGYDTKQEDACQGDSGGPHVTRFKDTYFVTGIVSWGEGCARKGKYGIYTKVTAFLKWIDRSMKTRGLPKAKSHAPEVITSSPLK", "T1 sequence (P00742 41-179 partner limits assumed)": "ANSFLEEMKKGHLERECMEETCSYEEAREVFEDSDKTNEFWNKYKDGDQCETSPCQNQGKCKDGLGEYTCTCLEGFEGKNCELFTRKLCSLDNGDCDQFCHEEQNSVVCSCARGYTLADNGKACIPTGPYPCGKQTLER", "assay": "In vitro assay for inhibition of Factor Xa (fluorogenic assay, Rhodamine 110 bis-CBZ-glycylglycyl-L-arginine amide substrate)", "type": "biochemical", "settings": "Ki = IC50/1.6; 15 min preincubation, substrate 10 μM, room temperature, pH 7.4", "procedure": "In Vitro Assay for Inhibition of Factor Xa\nCompounds of the present invention were tested for their Factor Xa inhibitory activity as determined in vitro by their ability to inhibit human Factor Xa in a fluorogenic assay, using Rhodamine 110, bis-CBZ-glycylglycyl-L-arginine amide as the fluorogenic substrate. Compounds were diluted from a 10 mM stock solution in dimethylsulfoxide at appropriate concentrations. Assay was performed at room temperature using buffer consisting of: 50 mM Tris-HCl, 150 mM NaCl, 5 mM CaCl2, pH 7.4. containing human Factor Xa (final conc. Of 0.0003 U·ml−1). Compound and enzyme were preincubated for 15 min prior to addition of the substrate (final conc. of 10 μM). The reaction was stopped after 3 hrs with the addition of H-D-Phe-Pro-Arg-Chloromethylketone. An LJL-Analyst fluorimeter was used to monitor fluorescence with 485 nm excitation/535 nm emission. To obtain IC50 values the data were analysed using ActivityBase® and XLfit®.\nCalculation of Ki Values: Ki=IC50/(1+[Substrate]/Km)\nThe Ki value for the above assay can be obtained by dividing the IC50 value by 1.6.", "units": {"Ki": "nM"}}
{"molecule": "C/C(=C\\S(=O)(=O)NC1CCN(c2ccc(-n3ccnc3CN3CCC3)cc2F)C1=O)c1ccc(Cl)s1", "note": "(centres unmarked) [Example 1, (1E)-N-(1-{4-[2-(1-Azetidinylmethyl)-1H-imidazol-1-yl]-2-fluorophenyl}-2-oxo-3-pyrrolidinyl)-2-(5-chloro-thienyl)-1-propene-1-sulfonamide formate]", "Ki": "< 10"}
{"molecule": "O=C1C(NS(=O)(=O)CCc2ccc(Cl)s2)CCN1c1ccc(-n2ccnc2CN2CCC2)cc1F", "note": "(centres unmarked) [Example 2, N-(1-{4-[2-(1-Azetidinylmethyl)-1H-imidazol-1-yl]-2-fluorophenyl}-2-oxo-3-pyrrolidinyl)-2-(5-chloro-2-thienyl)ethanesulfonamide formate]", "Ki": "< 10"}
{"molecule": "C/C(=C\\S(=O)(=O)NC1CCN(c2ccc(-n3ccnc3CN3CCC(F)C3)cc2F)C1=O)c1ccc(Cl)s1", "note": "(centres unmarked) [Example 5, (1E)-2-(5-Chloro-2-thienyl)-N-[1-(2-fluoro-4-{2-[(3-fluoro-1-pyrrolidinyl)methyl]-1H-imidazol-1-yl}phenyl)-2-oxo-3-pyrrolidinyl]-1-propene-1-sulfonamide formate]", "Ki": "< 10"}
{"molecule": "O=C1C(NS(=O)(=O)c2cc3ccc(Cl)cc3s2)CCN1c1ccc(-n2ccnc2CN2CCC(F)C2)cc1F", "note": "(centres unmarked) [Example 6, 6-Chloro-N-[1-(2-fluoro-4-{2-[(3-fluoro-1-pyrrolidinyl)methyl]-1H-imidazol-1-yl}phenyl)-2-oxo-3-pyrrolidinyl]-1-benzothiophene-2-sulfonamide formate]", "Ki": "< 10"}
{"molecule": "COC1CN(Cc2nccn2-c2ccc(N3CCC(NS(=O)(=O)c4cc5ccc(Cl)cc5s4)C3=O)c(F)c2)C1", "note": "(centres unmarked) [Example 7, 6-Chloro-N-{1-[2-fluoro-4-(2-{[3-(methyloxy)-1-azetidinyl]methyl}-1H-imidazol-1-yl)phenyl]-2-oxo-3-pyrrolidinyl}-1-benzothiophene-2-sulfonamide formate]", "Ki": "< 10"}
